How the values were obtained:
Phakopsora pachyrhizi = Phakopsora pachyrhizi / soybean / leaf disc preventative (Asian soybean rust); type: in vivo; settings: foliar, 200 ppm in the applied formulation, soybean leaf disks, inoculated one day after application, vs untreated, 12 to 14 days after application, read-out: disease control
Experimental: (§1) Leaf disks or leaf segments of various plant species are cut from plants grown in a greenhouse. The cut leaf disks or segments are placed in multiwell plates (24-well format) onto water agar. The leaf disks are sprayed with a test solution before (preventative) or after (curative) inoculation. Compounds to be tested are prepared as DMSO solutions (max. 10 mg/ml) which are diluted to the appropriate concentration with 0.025% Tween20 just before spraying. The inoculated leaf disks or segments are incubated under defined conditions (temperature, relative humidity, light, etc.) according to the respective test system. A single evaluation of disease level is carried out 3 to 14 days after inoculation, depending on the pathosystem. Percent disease control relative to the untreated check leaf disks or segments is then calculated.
Example 3: Fungicidal Activity Against Phakopsora pachyrhizi/Soybean/Leaf Disc Preventative (Asian Soybean Rust)
Soybean leaf disks are placed on water agar in multiwell plates (24-well format) and sprayed with the Formulated test compound diluted in water. One day after application leaf discs are inoculated by spraying a spore suspension on the lower leaf surface. After an incubation period in a climate cabinet of 24-36 hours in darkness at 20° C. and 75% rh leaf disc are kept at 20° C. with 12 h light/day and 75% rh. The activity of a compound is assessed as percent disease control compared to untreated when an appropriate level of disease damage appears in untreated check leaf disks (12 to 14 days after application).
(§2) The following compounds at 200 ppm in the applied Formulation give at least 80% disease control in this test when compared to untreated control leaf disks under the same conditions, which show extensive disease development.

[1] = system: Glomerella lacenarium (Colletotrichum lacenarium); test: Glomerella lacenarium (Colletotrichum lacenarium) liquid culture / cucumber / preventative (anthracnose); type: cell-based; settings: 20 ppm, liquid culture in PDB, 24° C., inhibition of growth measured photometrically 3 to 4 days after application, vs untreated, read-out: disease control
Experimental: Mycelia fragments or conidia suspensions of a fungus prepared either freshly from liquid cultures of the fungus or from cryogenic storage, are directly mixed into nutrient broth. DMSO solutions of the test compound (max. 10 mg/ml) are diluted with 0.025% Tween20 by a factor of 50 and 10 μl of this solution is pipetted into a microtiter plate (96-well format). The nutrient broth containing the fungal spores/mycelia fragments is then added to give an end concentration of the tested compound. The test plates are incubated in the dark at 24° C. and 96% relative humidity. The inhibition of fungal growth is determined photometrically after 2 to 7 days, depending on the pathosystem, and percent antifungal activity relative to the untreated check is calculated.
Example 4: Fungicidal Activity Against Glomerella lacenarium (Colletotrichum lacenarium) Liquid Culture/Cucumber/Preventative (Anthracnose)
Conidia of the fungus from cryogenic storage are directly mixed into nutrient broth (PDB-potato dextrose broth). After placing a (DMSO) solution of test compound into a microtiter plate (96-well format), the nutrient broth containing the fungal spores is added. The test plates are incubated at 24° C. and the inhibition of growth is measured photometrically 3 to 4 days after application.
The following compounds at 20 ppm in the applied Formulation give at least 80% disease control in this test when compared to untreated control under the same conditions, which show extensive disease development.

[2] = system: Puccinia recondita f. Sp. Tritici; test: Puccinia recondita f. sp. tritici / wheat / leaf disc preventative (brown rust); type: in vivo; settings: foliar, 200 ppm in the applied formulation, wheat leaf segments cv. Kanzler, inoculated 1 day after application, vs untreated, 7 to 9 days after application, read-out: disease control
Experimental: as §1
Example 1: Fungicidal Activity Against Puccinia recondita f. Sp. Tritici/Wheat/Leaf Disc Preventative (Brown Rust)
Wheat leaf segments cv. Kanzler were placed on agar in multiwell plates (24-well format) and sprayed with the Formulated test compound diluted in water. The leaf disks were inoculated with a spore suspension of the fungus 1 day after application. The inoculated leaf segments were incubated at 19° C. and 75% relative humidity (rh) under a light regime of 12 hours light/12 hours darkness in a climate cabinet and the activity of a compound was assessed as percent disease control compared to untreated when an appropriate level of disease damage appears in untreated check leaf segments (7 to 9 days after application).
as §2

O=C(CC(F)(F)F)Nc1ccc(-c2noc(C(F)(F)F)n2)cc1 [Compound 1.125, 3,3,3-trifluoro-N-[4-[5-(trifluoromethyl)-1,2,4-oxadiazol-3-yl]phenyl] propanamide]
pest or weed control at 200 ppm (Phakopsora pachyrhizi): ≥ 80%
inhibition of growth at 20 ppm [1]: ≥ 80%
pest or weed control at 200 ppm [2]: ≥ 80%

CC1CC1C(=O)N(C)c1ccc(-c2noc(C(F)(F)F)n2)cc1 (stereo not drawn) [Compound 1.137, N,2-dimethyl-N-[4-[5-(trifluoromethyl)-1,2,4-oxadiazol-3-yl]phenyl]cyclo-propanecarboxamide]
pest or weed control at 200 ppm (Phakopsora pachyrhizi): ≥ 80%
inhibition of growth at 20 ppm [1]: ≥ 80%

CCC(=O)Nc1ccc(CC(=O)Nc2ccc(-c3noc(C(F)(F)F)n3)cc2)cc1 [Compound 1.27, N-[4-[2-oxo-2-[4-[5-(trifluoromethyl)-1,2,4-oxadiazol-3-yl]anilino]ethyl]phenyl]propanamide]
pest or weed control at 200 ppm (Phakopsora pachyrhizi): ≥ 80%

CN(C(=O)C1CC1(F)F)c1ccc(-c2noc(C(F)(F)F)n2)cc1 (stereo not drawn) [Compound 1.133, 2,2-difluoro-N-methyl-N-[4-[5-(trifluoromethyl)-1,2,4-oxadiazol-3-yl]phenyl]cyclo-propanecarboxamide]
pest or weed control at 200 ppm (Phakopsora pachyrhizi): ≥ 80%

CC(C)(C(=O)Nc1ccc(-c2noc(C(F)(F)F)n2)nc1)c1ncc(Cl)cc1Cl [Compound 1.53, 2-(3,5-dichloro-2-pyridyl)-2-methyl-N-[6-[5-(trifluoromethyl)-1,2,4-oxadiazol-3-yl]-3-pyridyl]propanamide]
pest or weed control at 200 ppm (Phakopsora pachyrhizi): ≥ 80%

CCC(=O)N(OC)c1ccc(-c2noc(C(F)(F)F)n2)cc1 [Compound 2.28, N-methoxy-N-[4-[5-(trifluoromethyl)-1,2,4-oxadiazol-3-yl]phenyl] propanamide]
pest or weed control at 200 ppm (Phakopsora pachyrhizi): ≥ 80%
inhibition of growth at 20 ppm [1]: ≥ 80%

CN(C(=O)C1(C)CC1)c1ccc(-c2noc(C(F)(F)F)n2)cc1 [Compound 1.138, N,1-dimethyl-N-[4-[5-(trifluoromethyl)-1,2,4-oxadiazol-3-yl]phenyl]cyclo-propanecarboxamide]
pest or weed control at 200 ppm (Phakopsora pachyrhizi): ≥ 80%

O=C(Nc1ccc(-c2noc(C(F)(F)F)n2)cc1)C1CCSCC1 [Compound 1.96, N-[4-[5-(trifluoromethyl)-1,2,4-oxadiazol-3-yl]phenyl] tetrahydrothiopyran-4-carboxamide]
inhibition of growth at 20 ppm [1]: ≥ 80%
pest or weed control at 200 ppm [2]: ≥ 80%

COCCOCC(=O)Nc1ccc(-c2noc(C(F)(F)F)n2)cc1 [Compound 1.122, 2-(2-methoxyethoxy)-N-[4-[5-(trifluoromethyl)-1,2,4-oxadiazol-3-yl]phenyl]acetamide]
inhibition of growth at 20 ppm [1]: ≥ 80%
pest or weed control at 200 ppm [2]: ≥ 80%

CC(CO)(CCl)C(=O)Nc1ccc(-c2noc(C(F)(F)F)n2)cc1 (stereo not drawn) [Compound 1.103, 2-(chloromethyl)-3-hydroxy-2-methyl-N-[4-[5-(trifluoromethyl)-1,2,4-oxadiazol-3-yl]phenyl] propanamide]
inhibition of growth at 20 ppm [1]: ≥ 80%
pest or weed control at 200 ppm [2]: ≥ 80%

O=C(CC1CC(F)(F)C1)Nc1ccc(-c2noc(C(F)(F)F)n2)cc1 [Compound 1.97, 2-(3,3-difluorocyclobutyl)-N-[4-[5-(trifluoromethyl)-1,2,4-oxadiazol-3-yl]phenyl]acetamide]
inhibition of growth at 20 ppm [1]: ≥ 80%
pest or weed control at 200 ppm [2]: ≥ 80%

O=C(Cc1cccs1)Nc1ccc(-c2noc(C(F)(F)F)n2)cc1 [Compound 1.89, 2-(2-thienyl)-N-[4-[5-(trifluoromethyl)-1,2,4-oxadiazol-3-yl]phenyl]acetamide]
inhibition of growth at 20 ppm [1]: ≥ 80%
pest or weed control at 200 ppm [2]: ≥ 80%

O=C(CCc1cccnc1)Nc1ccc(-c2noc(C(F)(F)F)n2)cc1 [Compound 1.105, 3-(3-pyridyl)-N-[4-[5-(trifluoromethyl)-1,2,4-oxadiazol-3-yl]phenyl] propanamide]
inhibition of growth at 20 ppm [1]: ≥ 80%
pest or weed control at 200 ppm [2]: ≥ 80%

O=C(Cc1cc(C(F)(F)F)ccn1)Nc1ccc(-c2noc(C(F)(F)F)n2)cc1 [Compound 1.115, N-[4-[5-(trifluoromethyl)-1,2,4-oxadiazol-3-yl]phenyl]-2-[4-(trifluoromethyl)-2-pyridyl]acetamide]
inhibition of growth at 20 ppm [1]: ≥ 80%
pest or weed control at 200 ppm [2]: ≥ 80%

O=C(Nc1ccc(-c2noc(C(F)(F)F)n2)cc1)C(F)F [Compound 1.120, 2,2-difluoro-N-[4-[5-(trifluoromethyl)-1,2,4-oxadiazol-3-yl]phenyl]acetamide]
inhibition of growth at 20 ppm [1]: ≥ 80%
pest or weed control at 200 ppm [2]: ≥ 80%

O=C(CCc1ccccc1)Nc1ccc(-c2noc(C(F)(F)F)n2)cc1 [Compound 1.76, 3-phenyl-N-[4-[5-(trifluoromethyl)-1,2,4-oxadiazol-3-yl]phenyl] propanamide]
inhibition of growth at 20 ppm [1]: ≥ 80%
pest or weed control at 200 ppm [2]: ≥ 80%

CCC(CC)C(=O)Nc1ccc(-c2noc(C(F)(F)F)n2)cc1 [Compound 1.91, 2-ethyl-N-[4-[5-(trifluoromethyl)-1,2,4-oxadiazol-3-yl]phenyl]butanamide]
pest or weed control at 200 ppm (Phakopsora pachyrhizi): ≥ 80%
inhibition of growth at 20 ppm [1]: ≥ 80%

O=C(Nc1ccc(-c2noc(C(F)(F)F)n2)cc1)C1CCCC1 [Compound 2.6, N-[4-[5-(trifluoromethyl)-1,2,4-oxadiazol-3-yl]phenyl] cyclopentane-carboxamide]
inhibition of growth at 20 ppm [1]: ≥ 80%
pest or weed control at 200 ppm [2]: ≥ 80%

O=C(CC1CC1)Nc1ccc(-c2noc(C(F)(F)F)n2)cc1 [Compound 1.80, 2-cyclopropyl-N-[4-[5-(trifluoromethyl)-1,2,4-oxadiazol-3-yl]phenyl]acetamide]
inhibition of growth at 20 ppm [1]: ≥ 80%
pest or weed control at 200 ppm [2]: ≥ 80%

O=C(Nc1ccc(-c2noc(C(F)(F)F)n2)cc1)C1CCC1 [Compound 2.9, N-[4-[5-(trifluoromethyl)-1,2,4-oxadiazol-3-yl]phenyl] cyclobutane-carboxamide]
inhibition of growth at 20 ppm [1]: ≥ 80%
pest or weed control at 200 ppm [2]: ≥ 80%

COC(=O)CCC(=O)Nc1ccc(-c2noc(C(F)(F)F)n2)cc1 [Compound 1.83, methyl 4-oxo-4-[4-[5-(trifluoromethyl)-1,2,4-oxadiazol-3-yl]anilino]butanoate]
inhibition of growth at 20 ppm [1]: ≥ 80%
pest or weed control at 200 ppm [2]: ≥ 80%

O=C(Nc1ccc(-c2noc(C(F)(F)F)n2)cc1)C1=CCCC1 [Compound 1.81, N-[4-[5-(trifluoromethyl)-1,2,4-oxadiazol-3-yl]phenyl] cyclopentene-1-carboxamide]
pest or weed control at 200 ppm (Phakopsora pachyrhizi): ≥ 80%
inhibition of growth at 20 ppm [1]: ≥ 80%

O=C(Nc1ccc(-c2noc(C(F)(F)F)n2)cc1)C1OCCO1 [Compound 1.113, N-[4-[5-(trifluoromethyl)-1,2,4-oxadiazol-3-yl]phenyl]-1,3-dioxolane-2-carboxamide]
inhibition of growth at 20 ppm [1]: ≥ 80%
pest or weed control at 200 ppm [2]: ≥ 80%

O=C(Nc1ccc(-c2noc(C(F)(F)F)n2)cc1)C1CSC1 [Compound 1.82, N-[4-[5-(trifluoromethyl)-1,2,4-oxadiazol-3-yl]phenyl]thietane-3-carboxamide]
inhibition of growth at 20 ppm [1]: ≥ 80%
pest or weed control at 200 ppm [2]: ≥ 80%

C=CCCC(=O)Nc1ccc(-c2noc(C(F)(F)F)n2)cc1 [Compound 1.88, N-[4-[5-(trifluoromethyl)-1,2,4-oxadiazol-3-yl]phenyl]pent-4-enamide]
inhibition of growth at 20 ppm [1]: ≥ 80%
pest or weed control at 200 ppm [2]: ≥ 80%

COCc1nc(C)c(C(=O)Nc2ccc(-c3noc(C(F)(F)F)n3)nc2)s1 [Compound 1.51, 2-(methoxymethyl)-4-methyl-N-[6-[5-(trifluoromethyl)-1,2,4-oxadiazol-3-yl]-3-pyridyl]thiazole-5-carboxamide]
pest or weed control at 200 ppm (Phakopsora pachyrhizi): ≥ 80%
